In the supplement of paper PMC10307832:

Legend:
Experiment in all cases: relative viability (nuclei count vs DMSO), 5 days (fraction); higher = more cells survive
HCC-366 = test system: HCC-366
In short: (§1)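 Lung cancer cell lines were pin-tool dosed in 1536-well plates on the day after seeding, with either a lone drug or a fixed anchor-drug dose plus five library-drug doses (not always all listed) in √10 steps. Nuclei were counted on 4× images after 5 days. Relative viability is the ratio of treated-well to vehicle-well nuclei counts, with each value a median of duplicate plates.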

NCI-H2009 = test system: NCI-H2009
In short: as §1

NCI-H2228 = test system: NCI-H2228
In short: as §1

NCI-H23 = test system: NCI-H23
In short: as §1

NCI-H1944 = test system: NCI-H1944
In short: as §1

NCI-H2405 = test system: NCI-H2405
In short: as §1

ABC-1 = test system: ABC-1
In short: as §1

SK-LU-1 = test system: SK-LU-1
In short: as §1

NCI-H2023 = test system: NCI-H2023
In short: as §1

UMC-11 = test system: UMC-11
In short: as §1

HCC-15 = test system: HCC-15
In short: as §1

NCI-H1734 = test system: NCI-H1734
In short: as §1

EMC-BAC-2 = test system: EMC-BAC-2
In short: as §1

COR-L23 = test system: COR-L23
In short: as §1

LC-2-ad = test system: LC-2-ad
In short: as §1

NCI-H838 = test system: NCI-H838
In short: as §1

ChaGo-K-1 = test system: ChaGo-K-1
In short: as §1

A-427 = test system: A-427
In short: as §1

HARA = test system: HARA
In short: as §1

NCI-H1993 = test system: NCI-H1993
In short: as §1

HCC-78 = test system: HCC-78
In short: as §1

NCI-H2126 = test system: NCI-H2126
In short: as §1

With `NC(=O)Nc1cc(-c2cccc(F)c2)sc1C(=O)N[C@H]1CCCNC1` [AZD7762] + C[C@@H](Oc1cc(-c2cnn(C3CCNCC3)c2)cnc1N)c1c(Cl)ccc(F)c1Cl [Crizotinib] (partner 1 µM) the relative viability (HCC-366; first compound 0.01 µM) was 0.678, the relative viability (HCC-366; first compound 0.03162 µM) was 0.478 and the relative viability (HCC-366; first compound 0.1 µM) was 0.542. The relative viability (HCC-366; first compound 0.3162 µM) was 0.323, the relative viability (HCC-366; first compound 1 µM) was 0.0525 and the relative viability (NCI-H2009; first compound 0.01 µM) was 1.04. It also gave a relative viability (NCI-H2009; first compound 0.03162 µM) of 1.13, a relative viability (NCI-H2009; first compound 0.1 µM) of 1.07 and a relative viability (NCI-H2009; first compound 0.3162 µM) of 0.954. For the same compound, the relative viability (NCI-H2009; first compound 1 µM) was 0.38, the relative viability (NCI-H2228; first compound 0.01 µM) was 0.423 and the relative viability (NCI-H2228; first compound 0.03162 µM) was 0.588. The relative viability (NCI-H2228; first compound 0.1 µM) was 0.461, the relative viability (NCI-H2228; first compound 0.3162 µM) was 0.436 and the relative viability (NCI-H2228; first compound 1 µM) was 0.208. The relative viability (NCI-H23; first compound 0.01 µM) was 0.687, the relative viability (NCI-H23; first compound 0.03162 µM) was 0.517 and the relative viability (NCI-H23; first compound 0.1 µM) was 0.542. For the same compound, the relative viability (NCI-H23; first compound 0.3162 µM) was 0.323, the relative viability (NCI-H23; first compound 1 µM) was 0.203 and the relative viability (NCI-H1944; first compound 0.01 µM) was 1.29. The relative viability (NCI-H1944; first compound 0.03162 µM) was 1.22, the relative viability (NCI-H1944; first compound 0.1 µM) was 1.2 and the relative viability (NCI-H1944; first compound 0.3162 µM) was 1.19. The relative viability (NCI-H1944; first compound 1 µM) was 0.918, the relative viability (NCI-H2405; first compound 0.01 µM) was 0.94 and the relative viability (NCI-H2405; first compound 0.03162 µM) was 0.802. For the same compound, the relative viability (NCI-H2405; first compound 0.1 µM) was 0.841, the relative viability (NCI-H2405; first compound 0.3162 µM) was 0.819 and the relative viability (NCI-H2405; first compound 1 µM) was 0.398. It also gave a relative viability (ABC-1; first compound 0.01 µM) of 1.1, a relative viability (ABC-1; first compound 0.03162 µM) of 1.56 and a relative viability (ABC-1; first compound 0.1 µM) of 0.842. The relative viability (ABC-1; first compound 0.3162 µM) was 0.49, the relative viability (ABC-1; first compound 1 µM) was 0.13 and the relative viability (SK-LU-1; first compound 0.01 µM) was 0.991. The relative viability (SK-LU-1; first compound 0.03162 µM) was 0.714, the relative viability (SK-LU-1; first compound 0.1 µM) was 0.38 and the relative viability (SK-LU-1; first compound 0.3162 µM) was 0.226. It also gave a relative viability (SK-LU-1; first compound 1 µM) of 0.285, a relative viability (NCI-H2023; first compound 0.01 µM) of 0.573 and a relative viability (NCI-H2023; first compound 0.03162 µM) of 0.612. The relative viability (NCI-H2023; first compound 0.1 µM) was 0.417, the relative viability (NCI-H2023; first compound 0.3162 µM) was 0.209 and the relative viability (NCI-H2023; first compound 1 µM) was 0.118. The relative viability (UMC-11; first compound 0.01 µM) was 0.713, the relative viability (UMC-11; first compound 0.03162 µM) was 0.421 and the relative viability (UMC-11; first compound 0.1 µM) was 0.516. For the same compound, the relative viability (UMC-11; first compound 0.3162 µM) was 0.508, the relative viability (UMC-11; first compound 1 µM) was 0.142 and the relative viability (HCC-15; first compound 0.01 µM) was 0.948. The relative viability (HCC-15; first compound 0.03162 µM) was 0.776, the relative viability (HCC-15; first compound 0.1 µM) was 0.818 and the relative viability (HCC-15; first compound 0.3162 µM) was 0.774. It also gave a relative viability (HCC-15; first compound 1 µM) of 0.825, a relative viability (NCI-H1734; first compound 0.01 µM) of 0.837 and a relative viability (NCI-H1734; first compound 0.03162 µM) of 0.676. It also gave a relative viability (NCI-H1734; first compound 0.1 µM) of 0.869, a relative viability (NCI-H1734; first compound 0.3162 µM) of 0.612 and a relative viability (NCI-H1734; first compound 1 µM) of 0.458. It also gave a relative viability (EMC-BAC-2; first compound 0.01 µM) of 0.852, a relative viability (EMC-BAC-2; first compound 0.03162 µM) of 0.718 and a relative viability (EMC-BAC-2; first compound 0.1 µM) of 0.777. For the same compound, the relative viability (EMC-BAC-2; first compound 0.3162 µM) was 0.797, the relative viability (EMC-BAC-2; first compound 1 µM) was 0.706 and the relative viability (COR-L23; first compound 0.01 µM) was 0.775. It also gave a relative viability (COR-L23; first compound 0.03162 µM) of 0.656, a relative viability (COR-L23; first compound 0.1 µM) of 0.616 and a relative viability (COR-L23; first compound 0.3162 µM) of 0.45. It also gave a relative viability (COR-L23; first compound 1 µM) of 0.117, a relative viability (LC-2-ad; first compound 0.01 µM) of 0.551 and a relative viability (LC-2-ad; first compound 0.03162 µM) of 0.483. For the same compound, the relative viability (LC-2-ad; first compound 0.1 µM) was 0.52, the relative viability (LC-2-ad; first compound 0.3162 µM) was 0.522 and the relative viability (LC-2-ad; first compound 1 µM) was 0.295. It also gave a relative viability (NCI-H838; first compound 0.01 µM) of 0.809, a relative viability (NCI-H838; first compound 0.03162 µM) of 0.781 and a relative viability (NCI-H838; first compound 0.1 µM) of 0.762. It also gave a relative viability (NCI-H838; first compound 0.3162 µM) of 0.687, a relative viability (NCI-H838; first compound 1 µM) of 0.301 and a relative viability (ChaGo-K-1; first compound 0.01 µM) of 1.21. For the same compound, the relative viability (ChaGo-K-1; first compound 0.03162 µM) was 1.04, the relative viability (ChaGo-K-1; first compound 0.1 µM) was 1.14 and the relative viability (ChaGo-K-1; first compound 0.3162 µM) was 1.07. It also gave a relative viability (ChaGo-K-1; first compound 1 µM) of 0.64, a relative viability (A-427; first compound 0.01 µM) of 1.01 and a relative viability (A-427; first compound 0.03162 µM) of 0.869. It also gave a relative viability (A-427; first compound 0.1 µM) of 0.992, a relative viability (A-427; first compound 0.3162 µM) of 0.815 and a relative viability (A-427; first compound 1 µM) of 0.386. The relative viability (HARA; first compound 0.01 µM) was 1.11, the relative viability (HARA; first compound 0.03162 µM) was 0.98 and the relative viability (HARA; first compound 0.1 µM) was 0.894. It also gave a relative viability (HARA; first compound 0.3162 µM) of 1.01, a relative viability (HARA; first compound 1 µM) of 0.25 and a relative viability (NCI-H1993; first compound 0.01 µM) of 0.952. It also gave a relative viability (NCI-H1993; first compound 0.03162 µM) of 0.957, a relative viability (NCI-H1993; first compound 0.1 µM) of 0.729 and a relative viability (NCI-H1993; first compound 0.3162 µM) of 0.873. The relative viability (NCI-H1993; first compound 1 µM) was 0.808, the relative viability (HCC-78; first compound 0.01 µM) was 0.364 and the relative viability (HCC-78; first compound 0.03162 µM) was 0.35. The relative viability (HCC-78; first compound 0.1 µM) was 0.317, the relative viability (HCC-78; first compound 0.3162 µM) was 0.326 and the relative viability (HCC-78; first compound 1 µM) was 0.255. It also gave a relative viability (NCI-H2126; first compound 0.01 µM) of 1.01, a relative viability (NCI-H2126; first compound 0.03162 µM) of 1.01 and a relative viability (NCI-H2126; first compound 0.1 µM) of 1.12. The relative viability (NCI-H2126; first compound 0.3162 µM) was 1.04 and the relative viability (NCI-H2126; first compound 1 µM) was 1.05.
